Measurements as given in patent US10479780B2, “Aminopyrazole derivatives” (Chugai Seiyaku Kabushiki Kaisha, priority 2015, dated 2019).
Read-outs that look alike come from different tables or passages of the source.

Legend:
Type in all cases: biochemical
human Yes1 enzyme = target: T1, human Yes1 enzyme (Homo sapiens, UniProt P07947); assay: Yes1 enzyme inhibitory activity (time-resolved fluorometry, biotinylated peptide phosphorylation); settings: read-out: YES_IC50
T1 construct: made in house
T1 sequence (P07947 whole entry): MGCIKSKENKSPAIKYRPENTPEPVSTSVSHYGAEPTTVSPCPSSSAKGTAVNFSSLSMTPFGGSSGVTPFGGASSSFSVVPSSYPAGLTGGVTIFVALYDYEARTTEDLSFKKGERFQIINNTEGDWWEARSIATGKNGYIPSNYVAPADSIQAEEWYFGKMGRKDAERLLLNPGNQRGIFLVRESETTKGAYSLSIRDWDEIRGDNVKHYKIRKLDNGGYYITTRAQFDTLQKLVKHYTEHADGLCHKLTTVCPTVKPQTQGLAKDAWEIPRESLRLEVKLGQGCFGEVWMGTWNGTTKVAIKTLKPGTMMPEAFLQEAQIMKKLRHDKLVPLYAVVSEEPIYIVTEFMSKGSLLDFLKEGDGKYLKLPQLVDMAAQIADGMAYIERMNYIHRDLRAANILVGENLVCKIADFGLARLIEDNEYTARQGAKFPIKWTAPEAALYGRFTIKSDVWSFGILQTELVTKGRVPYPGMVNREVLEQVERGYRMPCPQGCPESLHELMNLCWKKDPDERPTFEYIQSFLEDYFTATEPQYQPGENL
Method in brief: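 Inhibition was expressed against a compound-free control to give IC50, using TR-FRET read-out (Eu-cryptate anti-pTyr antibody, streptavidin-XL665).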

human Lck enzyme = target: T2, human Lck enzyme (Homo sapiens, UniProt P06239); assay: Lck enzyme inhibitory activity (time-resolved fluorometry, biotinylated peptide phosphorylation); settings: read-out: LCK_IC50
T2 construct: purchased Carna Biosciences, Inc. 08-170
T2 sequence (P06239 whole entry): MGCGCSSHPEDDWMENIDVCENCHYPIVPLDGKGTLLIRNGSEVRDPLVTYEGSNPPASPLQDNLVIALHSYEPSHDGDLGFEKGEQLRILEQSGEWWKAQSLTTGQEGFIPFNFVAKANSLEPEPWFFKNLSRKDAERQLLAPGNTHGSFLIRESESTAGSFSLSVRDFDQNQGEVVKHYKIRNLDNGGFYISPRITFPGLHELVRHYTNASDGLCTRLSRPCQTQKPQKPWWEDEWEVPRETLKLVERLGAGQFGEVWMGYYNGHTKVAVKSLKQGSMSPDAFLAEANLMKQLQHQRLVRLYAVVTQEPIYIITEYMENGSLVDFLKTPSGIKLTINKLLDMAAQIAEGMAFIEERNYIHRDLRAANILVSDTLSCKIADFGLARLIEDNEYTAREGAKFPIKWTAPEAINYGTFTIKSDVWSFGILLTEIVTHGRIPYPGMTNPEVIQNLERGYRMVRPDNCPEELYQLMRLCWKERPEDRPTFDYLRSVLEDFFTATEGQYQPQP
Method in brief: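 Readout pairs a europium cryptate-labelled anti-phosphotyrosine antibody with XL665-streptavidin, measured by time-resolved fluorescence. IC50 derived from percent inhibition against untreated controls.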

human Src enzyme = target: T3, human Src enzyme (Homo sapiens, UniProt P12931); assay: Src enzyme inhibitory activity (time-resolved fluorometry, biotinylated peptide phosphorylation); settings: read-out: SRC_IC50
T3 construct: purchased Carna Biosciences, Inc. 08-173
T3 sequence (P12931 whole entry): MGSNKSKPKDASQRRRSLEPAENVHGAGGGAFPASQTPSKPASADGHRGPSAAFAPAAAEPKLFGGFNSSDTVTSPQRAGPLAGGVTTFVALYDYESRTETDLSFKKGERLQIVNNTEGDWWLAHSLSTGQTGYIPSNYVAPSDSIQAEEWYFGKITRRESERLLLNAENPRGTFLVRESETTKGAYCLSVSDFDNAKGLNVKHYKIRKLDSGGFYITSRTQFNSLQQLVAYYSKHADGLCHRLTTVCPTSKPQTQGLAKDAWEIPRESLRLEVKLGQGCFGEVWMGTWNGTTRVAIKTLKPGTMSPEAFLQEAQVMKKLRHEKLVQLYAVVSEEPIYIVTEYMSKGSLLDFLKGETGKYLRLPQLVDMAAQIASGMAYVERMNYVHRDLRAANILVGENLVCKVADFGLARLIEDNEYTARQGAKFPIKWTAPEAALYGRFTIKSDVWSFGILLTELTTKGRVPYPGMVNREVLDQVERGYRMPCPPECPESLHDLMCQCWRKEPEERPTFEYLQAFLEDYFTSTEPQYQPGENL
Method in brief: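 Compounds were tested for blocking tyrosine phosphorylation of a biotinylated peptide substrate by recombinant human Src. Phosphorylated product was quantified by time-resolved fluorometry using europium cryptate and XL665 conjugates, and IC50 was calculated against the compound-free control.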

[1] = biotinylated peptide phosphorylation

| Structure (SMILES) | IC50 (human Yes1 enzyme; [1]) | IC50 (human Lck enzyme; [1]) | IC50 (human Src enzyme; [1]) | IC50 (human Yes1 enzyme) | IC50 (human Lck enzyme) | IC50 (human Src enzyme) |
| --- | --- | --- | --- | --- | --- | --- |
| Cc1cc(Oc2c(F)cccc2F)ncc1-n1ncc(C(=O)c2cc3cc(OCC(F)F)c(N4CCOC4=O)cc3[nH]2)c1N [Example 4-21-005, 3-[2-[5-amino-1-[6-(2,6-difluorophenoxy)-4-methylpyridin-3-yl]pyrazole-4-carbonyl]-5-(2,2-difluoroethoxy)-1H-indol-6-yl]-1,3-oxazolidin-2-one] | 1.2 nM | 4.3 nM | 11 nM | – | – | – |
| Cc1cc(Oc2c(F)cccc2F)ncc1-n1ncc(C(=O)c2cc3cc(OC(F)F)c(N4CCN(S(C)(=O)=O)CC4)cc3[nH]2)c1N [Example 5-1-075, [5-amino-1-[6-(2,6-difluorophenoxy)-4-methylpyridin-3-yl]pyrazol-4-yl]-[5-(difluoromethoxy)-6-(4-methylsulfonylpiperazin-1-yl)-1H-indol-2-yl]methanone] | – | – | – | 2.8 nM | 18 nM | 73 nM |
| Cc1cc2cc(C(=O)c3cnn(-c4cnc(Oc5c(F)cccc5F)cc4C)c3N)[nH]c2cc1NS(=O)(=O)CC(=O)NC(C)C [Example 5-1-136, 2-[[2-[5-amino-1-[6-(2,6-difluorophenoxy)-4-methylpyridin-3-yl]pyrazole-4-carbonyl]-5-methyl-1H-indol-6-yl]sulfamoyl]-N-propan-2-ylacetamide] | – | – | – | 1.5 nM | 23 nM | 27 nM |
| Cc1cc(Oc2cccc(Cl)c2)ncc1-n1ncc(C(=O)c2cc3cc(F)c(NS(C)(=O)=O)cc3[nH]2)c1N [Example 4-2-037, N-[2-[5-amino-1-[6-(3-chlorophenoxy)-4-methylpyridin-3-yl]pyrazole-4-carbonyl]-5-fluoro-1H-indol-6-yl]methanesulfonamide] | 1.1 nM | 30 nM | 78 nM | – | – | – |
| Cc1cc(Oc2ccccc2F)ccc1-n1ncc(C(=O)c2cc3cc(N4CCOCC4)c(N4C(=O)NC(C)(C)C4=O)cc3[nH]2)c1N [Example 5-1-117, 3-[2-[5-amino-1-[4-(2-fluorophenoxy)-2-methylphenyl]pyrazole-4-carbonyl]-5-morpholin-4-yl-1H-indol-6-yl]-5,5-dimethylimidazolidine-2,4-dione] | – | – | – | 0.48 nM | 1.3 nM | 5 nM |
| Cc1cc2cc(C(=O)c3cnn(-c4cnc(Oc5ccccc5F)cc4C)c3N)[nH]c2cc1NS(=O)(=O)c1cnc(N(C)C)nc1 [Example 5-1-577, N-[2-[5-amino-1-[6-(2-fluorophenoxy)-4-methylpyridin-3-yl]pyrazole-4-carbonyl]-5-methyl-1H-indol-6-yl]-2-(dimethylamino) pyrimidine-5-sulfonamide] | 6.6 nM | 380 nM | 1100 nM | – | – | – |
| Cc1cc(Oc2ccccc2F)ccc1-n1ncc(C(=O)c2cc3cc(F)c(N4CCOC4=O)cc3[nH]2)c1N [Example 5-1-095, 3-[2-[5-amino-1-[4-(2-fluorophenoxy)-2-methylphenyl]pyrazole-4-carbonyl]-5-fluoro-1H-indol-6-yl]-1,3-oxazolidin-2-one] | – | – | – | 0.87 nM | 1.5 nM | 4.5 nM |
| Cc1cc(Oc2c(F)cccc2F)ncc1-n1ncc(C(=O)c2cc3cc(OCC(F)F)c(N4C(=O)NC5(CCNCC5)C4=O)cc3[nH]2)c1N [Example 5-1-332, 3-[2-[5-amino-1-[6-(2,6-difluorophenoxy)-4-methylpyridin-3-yl]pyrazole-4-carbonyl]-5-(2,2-difluoroethoxy)-1H-indol-6-yl]-1,3,8-triazaspiro[4.5]decane-2,4-dione] | – | – | – | 0.79 nM | 2.5 nM | 12 nM |
| Cc1cc(Oc2cccc(F)c2F)ncc1-n1ncc(C(=O)c2cc3cc(NS(C)(=O)=O)c(F)cc3[nH]2)c1N [Example 5-1-049, N-[2-[5-amino-1-[6-(2,3-difluorophenoxy)-4-methylpyridin-3-yl]pyrazole-4-carbonyl]-6-fluoro-1H-indol-5-yl]methanesulfonamide] | – | – | – | 1.5 nM | 3.9 nM | 70 nM |
| Cc1cc(Oc2cccc(Cl)c2)nc(C)c1-n1ncc(C(=O)c2cc3cc(F)c(NS(C)(=O)=O)cc3[nH]2)c1N [Example 5-1-052, N-[2-[5-amino-1-[6-(3-chlorophenoxy)-2,4-dimethylpyridin-3-yl]pyrazole-4-carbonyl]-5-fluoro-1H-indol-6-yl]methanesulfonamide] | – | – | – | 120 nM | 250 nM | 810 nM |
| Cc1cc2cc(C(=O)c3cnn(-c4cnc(Oc5ccccc5Cl)cc4C)c3N)[nH]c2cc1NS(=O)(=O)CCCF [Example 4-2-074, N-[2-[5-amino-1-[6-(2-chlorophenoxy)-4-methylpyridin-3-yl]pyrazole-4-carbonyl]-5-methyl-1H-indol-6-yl]-3-fluoropropane-1-sulfonamide] | 2.7 nM | 27 nM | 71 nM | – | – | – |
| Cc1cc2cc(C(=O)c3cnn(-c4cnc(Oc5ccccc5F)cc4C)c3N)[nH]c2cc1NS(=O)(=O)c1cncc(Cl)c1 [Example 5-1-495, N-[2-[5-amino-1-[6-(2-fluorophenoxy)-4-methylpyridin-3-yl]pyrazole-4-carbonyl]-5-methyl-1H-indol-6-yl]-5-chloropyridine-3-sulfonamide] | 3.9 nM | 360 nM | 550 nM | – | – | – |
| Cc1cc(Oc2ccccc2)cc(F)c1-n1ncc(C(=O)c2cc3cc(F)c(NS(=O)(=O)C4CC4)cc3[nH]2)c1N [Example 4-7-014, N-[2-[5-amino-1-(2-fluoro-6-methyl-4-phenoxyphenyl)pyrazole-4-carbonyl]-5-fluoro-1H-indol-6-yl]cyclopropanesulfonamide] | 4.9 nM | 73 nM | 130 nM | – | – | – |
| Cc1cc(Oc2ccccc2F)ncc1-n1ncc(C(=O)c2cc3cc(NS(C)(=O)=O)c(F)cc3[nH]2)c1N [Example 4-2-104, N-[2-[5-amino-1-[6-(2-fluorophenoxy)-4-methylpyridin-3-yl]pyrazole-4-carbonyl]-6-fluoro-1H-indol-5-yl]methanesulfonamide] | 0.56 nM | 1.9 nM | 22 nM | – | – | – |
| CS(=O)(=O)Nc1cc2[nH]c(C(=O)c3cnn(-c4c(Cl)cc(Oc5ccccc5F)cc4Cl)c3N)cc2cc1F [Example 5-1-023, N-[2-[5-amino-1-[2,6-dichloro-4-(2-fluorophenoxy)phenyl]pyrazole-4-carbonyl]-5-fluoro-1H-indol-6-yl]methanesulfonamide] | – | – | – | 16 nM | 64 nM | 240 nM |
| Cc1cc2cc(C(=O)c3cnn(-c4cnc(Oc5c(F)cccc5F)cc4C)c3N)[nH]c2cc1NS(C)(=O)=O [Example 4-1-001, N-{2-{5-amino-1-[6-(2,6-difluorophenoxy)-4-methylpyridin-3-yl]pyrazole-4-carbonyl}-5-methyl-1H-indol-6-yl}methanesulfonamide] | 1.2 nM | 8.2 nM | 45 nM | – | – | – |
| Cc1cc(Oc2ccccc2F)cc(F)c1-n1ncc(C(=O)c2cc3cc(OC(F)F)c(NC4CCN(S(C)(=O)=O)CC4)cc3[nH]2)c1N [Example 4-23-012, [5-amino-1-[2-fluoro-4-(2-fluorophenoxy)-6-methylphenyl]pyrazol-4-yl]-[5-(difluoromethoxy)-6-[(1-methylsulfonylpiperidin-4-yl)amino]-1H-indol-2-yl]methanone] | 14 nM | 31 nM | 70 nM | – | – | – |
| Cc1cc2cc(C(=O)c3cnn(-c4cnc(Oc5ccccc5Cl)cc4C)c3N)[nH]c2cc1NS(=O)(=O)N1CCOCC1 [Example 4-2-110, N-[2-[5-amino-1-[6-(2-chlorophenoxy)-4-methylpyridin-3-yl]pyrazole-4-carbonyl]-5-methyl-1H-indol-6-yl]morpholine-4-sulfonamide] | 8.7 nM | 110 nM | 250 nM | – | – | – |
| Cc1cc(Oc2cccc(F)c2)ncc1-n1ncc(C(=O)c2cc3cc(F)c(NS(=O)(=O)CCCF)cc3[nH]2)c1N [Example 5-1-059, N-[2-[5-amino-1-[6-(3-fluorophenoxy)-4-methylpyridin-3-yl]pyrazole-4-carbonyl]-5-fluoro-1H-indol-6-yl]-3-fluoropropane-1-sulfonamide] | – | – | – | 3.4 nM | 33 nM | 130 nM |
| Cc1cc2cc(C(=O)c3cnn(-c4cnc(Oc5c(F)cccc5F)cc4C)c3N)[nH]c2cc1NS(=O)(=O)N1CCOCC1 [Example 4-2-109, N-[2-[5-amino-1-[6-(2,6-difluorophenoxy)-4-methylpyridin-3-yl]pyrazole-4-carbonyl]-5-methyl-1H-indol-6-yl]morpholine-4-sulfonamide] | 1.9 nM | 45 nM | 210 nM | – | – | – |
| Cc1cc(Oc2c(F)cccc2F)ncc1-n1ncc(C(=O)c2cc3cc(OCC(F)F)c(NS(=O)(=O)CCC(F)F)cc3[nH]2)c1N [Example 4-24-033, N-[2-[5-amino-1-[6-(2,6-difluorophenoxy)-4-methylpyridin-3-yl]pyrazole-4-carbonyl]-5-(2,2-difluoroethoxy)-1H-indol-6-yl]-3,3-difluoropropane-1-sulfonamide] | 4.9 nM | 16 nM | 88 nM | – | – | – |
| Cc1cc(Oc2ccccc2F)ccc1-n1ncc(C(=O)c2cc3cc(OC(F)F)c(N4CC(C)(C)NS4(=O)=O)cc3[nH]2)c1N [Example 5-1-340, [5-amino-1-[4-(2-fluorophenoxy)-2-methylphenyl]pyrazol-4-yl]-[5-(difluoromethoxy)-6-(4,4-dimethyl-1,1-dioxo-1,2,5-thiadiazolidin-2-yl)-1H-indol-2-yl]methanone] | – | – | – | 2.1 nM | 20 nM | 130 nM |
